The numbers were not newly measured in paper PMC4263960 (Pediatric blood & cancer, 2013), which cites them from elsewhere.

Where two headings read alike, the source gives them in different places.

Series [1] has as its system neuroblastoma in children. The following applies: 45 children with neuroblastoma; cited from earlier work.
Series [2] deals with pediatric preclinical xenograft models. The following applies: cited from earlier work.
The test system of the next series is Ewing sarcoma patients. The following applies: cited from earlier work.
The next series concerns pediatric solid tumors. The following applies: cited from earlier work.
The test system of series [3] is recurrent solid tumors in children. The following applies: cited from earlier work.

With `COc1ccc(S(=O)(=O)Nc2cccnc2Nc2ccc(O)cc2)cc1` [ABT-751], in series [1], the objective responses result is “absence of objective responses”. The “preclinical models with regression” value in series [2] (all models) is listed as 4 of 25; in series [2] (neuroblastoma models refractory to vincristine and paclitaxel), 2 of 4.

With `CC[C@]1(O)C[C@H]2CN(CCc3c([nH]c4ccccc34)[C@@](C(=O)OC)(c3cc4c(cc3OC)N(C=O)[C@H]3[C@@](O)(C(=O)OC)[C@H](OC(C)=O)[C@]5(CC)C=CCN6CC[C@]43[C@@H]65)C2)C1` [vincristine], in the series with Ewing sarcoma patients, the “patients with a partial response” value was “one of seven”.

Take `CCC1=C[C@@H]2CN(C1)Cc1c([nH]c3ccccc13)[C@@](C(=O)OC)(c1cc3c(cc1OC)N(C)[C@H]1[C@@](O)(C(=O)OC)[C@H](OC(C)=O)[C@]4(CC)C=CCN5CC[C@]31[C@@H]54)C2` [vinorelbine]: the “patients with objective responses” value with pediatric solid tumors (Ewing sarcomas) is on record as “one of seven”; in the series on pediatric solid tumors (osteosarcomas), “one of five”; with pediatric solid tumors (rhabdomyosarcoma) it was 6 of 12; in series [3] (astrocytoma), 1 of 4; in series [3] (eight children with neuroblastoma), “no responses”; in series [3] (medulloblastoma) it was 1 of 2. Moreover, the “patients with objective responses” value in series [3] (nine patients with non-rhabdomyosarcoma soft tissue sarcoma) was “no responses”; in series [3] (rhabdomyosarcoma) it was 4 of 11.
